Experimental data: article PMC7056318, “An algal enzyme required for biosynthesis of the most abundant marine carotenoids” (Science Advances, 2020)

How the values were obtained:
Format in all cases: biochemical
PtVDL1 = biological target: T1, PtVDL1 (Phaeodactylum tricornutum, UniProt B7G087); experiment: HPLC tautomerase assay, dose-response
T1 construct: gene VDL1
T1 sequence (B7G087 112-453): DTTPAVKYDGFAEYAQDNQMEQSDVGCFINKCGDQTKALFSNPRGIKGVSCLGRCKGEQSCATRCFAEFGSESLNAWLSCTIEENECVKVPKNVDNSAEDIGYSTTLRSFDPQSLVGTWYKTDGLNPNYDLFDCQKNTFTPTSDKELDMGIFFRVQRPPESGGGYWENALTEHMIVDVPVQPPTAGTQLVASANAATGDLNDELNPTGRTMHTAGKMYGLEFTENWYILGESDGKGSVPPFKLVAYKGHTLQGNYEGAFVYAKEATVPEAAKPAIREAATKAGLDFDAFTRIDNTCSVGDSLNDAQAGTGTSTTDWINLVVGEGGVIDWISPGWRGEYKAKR

PtVDE = biological target: T2, PtVDE (Phaeodactylum tricornutum, UniProt B7FUR6); experiment: HPLC de-epoxidase assay, dose-response
T2 construct: gene VDE
T2 sequence (B7FUR6 105-437): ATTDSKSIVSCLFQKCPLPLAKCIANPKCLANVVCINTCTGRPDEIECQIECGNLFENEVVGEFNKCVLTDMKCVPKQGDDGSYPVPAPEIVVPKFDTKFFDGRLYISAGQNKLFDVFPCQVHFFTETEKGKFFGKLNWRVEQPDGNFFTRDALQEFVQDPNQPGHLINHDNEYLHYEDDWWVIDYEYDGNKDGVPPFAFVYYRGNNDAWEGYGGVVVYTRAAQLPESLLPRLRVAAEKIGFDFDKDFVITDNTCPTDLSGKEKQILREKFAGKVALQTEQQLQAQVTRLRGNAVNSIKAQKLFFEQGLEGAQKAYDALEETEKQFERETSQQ

VDL1 from T. pseudonana = biological target: T3, VDL1 from T. pseudonana (Thalassiosira pseudonana, UniProt B8C0W7); experiment: HPLC, conversion of violaxanthin to neoxanthin; details: pH 5.2, 20 °C, MGDG, 3 h
T3 construct: gene THAPSDRAFT_22076
T3 sequence (B8C0W7 103-423): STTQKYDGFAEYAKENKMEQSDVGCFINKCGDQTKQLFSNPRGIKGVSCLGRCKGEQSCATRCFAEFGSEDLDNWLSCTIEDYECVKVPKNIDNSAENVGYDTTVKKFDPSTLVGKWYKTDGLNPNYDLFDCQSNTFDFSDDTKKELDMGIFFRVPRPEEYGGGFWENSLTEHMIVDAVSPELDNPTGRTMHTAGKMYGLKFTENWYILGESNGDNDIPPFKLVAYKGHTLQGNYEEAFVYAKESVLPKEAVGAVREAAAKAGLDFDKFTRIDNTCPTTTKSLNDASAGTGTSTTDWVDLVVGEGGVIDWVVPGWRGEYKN

IC50 (PtVDL1) | IC50 (PtVDE) | SMILES | HPLC, conversion of violaxanthin to neoxanthin (VDL1 from T. pseudonana)
73 mM | 0.68 mM | OC(CS)C(O)CS (stereo not drawn) [DTT] | 
 |  | CC(/C=C/C=C(C)/C=C/[C@@]12O[C@]1(C)C[C@@H](O)CC2(C)C)=C\C=C\C=C(C)\C=C\C=C(C)\C=C\[C@@]12O[C@]1(C)C[C@@H](O)CC2(C)C [violaxanthin] | also showed violaxanthin-neoxanthin tautomerase activity in vitro
